Measurements: ChEMBL document CHEMBL5537115, “New broad-spectrum and potent antibacterial agents with dual-targeting mechanism: Promoting FtsZ polymerization and disrupting bacterial membranes” (Eur J Med Chem, 2024)
In brackets after ≈: the same amount, converted by molar mass.

How the values were obtained:
Type in all cases: functional
[1] = tested on: Enterococcus faecalis; test: Antibacterial activity against vancomycin-resistant Enterococcus faecalis ATCC51299 assessed as bacterial growth inhibition incubated for 20 hrs by CLSI based broth microdilution method
[2] = tested on: Staphylococcus aureus; test: Antibacterial activity against Staphylococcus aureus clinical isolate assessed as bacterial growth inhibition incubated for 20 hrs by CLSI based broth microdilution method
[3] = tested on: Staphylococcus aureus; test: Antibacterial activity against erythromycin-susceptible Staphylococcus aureus ATCC25923 assessed as bacterial growth inhibition incubated for 20 hrs by CLSI based broth microdilution method
[4] = tested on: Staphylococcus epidermidis; test: Antibacterial activity against penicillin-resistant Staphylococcus epidermidis clinical isolate assessed as bacterial growth inhibition incubated for 20 hrs by CLSI based broth microdilution method
[5] = tested on: Enterococcus faecium; test: Antibacterial activity against vancomycin-susceptible Enterococcus faecium ATCC19434 assessed as bacterial growth inhibition incubated for 20 hrs by CLSI based broth microdilution method
[6] = tested on: Streptococcus pyogenes; test: Antibacterial activity against erythromycin-resistant Streptococcus pyogenes 2 clinical isolate assessed as bacterial growth inhibition incubated for 20 hrs by CLSI based broth microdilution method
[7] = tested on: Enterococcus faecalis; test: Antibacterial activity against vancomycin-susceptible Enterococcus faecalis ATCC29212 assessed as bacterial growth inhibition incubated for 20 hrs by CLSI based broth microdilution method
[8] = tested on: Streptococcus pyogenes; test: Antibacterial activity against erythromycin-susceptible Streptococcus pyogenes 1 assessed as bacterial growth inhibition incubated for 20 hrs by CLSI based broth microdilution method
[9] = tested on: Staphylococcus aureus; test: Antibacterial activity against penicillin-resistant Staphylococcus aureus ATCC31007 assessed as bacterial growth inhibition incubated for 20 hrs by CLSI based broth microdilution method
[10] = tested on: Escherichia coli; test: Antibacterial activity against penicillin-susceptible Escherichia coli ATCC25922 assessed as bacterial growth inhibition incubated for 20 hrs by CLSI based broth microdilution method
[11] = tested on: Escherichia coli; test: Antibacterial activity against wild-type Escherichia coli BW25113 assessed as bacterial growth inhibition incubated for 20 hrs by CLSI based broth microdilution method
[12] = tested on: Staphylococcus aureus; test: Antibacterial activity against methicillin-resistant Staphylococcus aureus ATCC43300 assessed as bacterial growth inhibition incubated for 20 hrs by CLSI based broth microdilution method
[13] = tested on: Bacillus subtilis; test: Antibacterial activity against penicillin-susceptible Bacillus subtilis ATCC9372 assessed as bacterial growth inhibition incubated for 20 hrs by CLSI based broth microdilution method
[14] = tested on: Enterococcus faecium; test: Antibacterial activity against vancomycin-resistant Enterococcus faecium ATCC51559 assessed as bacterial growth inhibition incubated for 20 hrs by CLSI based broth microdilution method
[15] = tested on: Klebsiella pneumoniae; test: Antibacterial activity against Klebsiella pneumoniae ATCC BAA-1902 assessed as bacterial growth inhibition incubated for 20 hrs by CLSI based broth microdilution method
[16] = tested on: Acinetobacter baumannii; test: Antibacterial activity against Acinetobacter baumannii ATCC19606 assessed as bacterial growth inhibition incubated for 20 hrs by CLSI based broth microdilution method
[17] = tested on: Bacillus pumilus; test: Antibacterial activity against penicillin-susceptible Bacillus pumilus CMCC63202 assessed as bacterial growth inhibition incubated for 20 hrs by CLSI based broth microdilution method

| Compound | MIC [1] [µg/mL] | MIC [2] [µg/mL] | MIC [3] [µg/mL] | MIC [4] [µg/mL] | MIC [5] [µg/mL] | MIC [6] [µg/mL] | MIC [7] [µg/mL] | MIC [8] [µg/mL] | MIC [9] [µg/mL] | MIC [10] [µg/mL] | MIC [11] [µg/mL] | MIC [12] [µg/mL] | MIC [13] [µg/mL] | MIC [14] [µg/mL] | MIC [15] [µg/mL] | MIC [16] [µg/mL] | MIC [17] [µg/mL] |
| --- | --- | --- | --- | --- | --- | --- | --- | --- | --- | --- | --- | --- | --- | --- | --- | --- | --- |
| CCOc1ccc(/C=C/c2cc(-c3ccccc3)c[n+](C)c2-c2ccccc2)cc1.[I-] | 32 | 2 | 2 | 16 | 32 | 8 | 16 | 4 | 16 | > 64 | > 64 | 8 | 4 | 16 | > 64 | 16 | 16 |
| C[n+]1cc(-c2ccccc2)c(/C=C/c2ccc(N3CCCCC3)cc2)cc1-c1ccc(C(C)(C)C)cc1.[I-] | 2 | 0.5 | 0.25 | 1 | 1 | 2 | 1 | 0.5 | 0.25 | 64 | 4 | 1 | 0.5 | 1 | 8 | 1 | 0.125 |
| C[n+]1cc(-c2ccccc2)cc(/C=C/c2ccc(C#N)cc2)c1-c1ccccc1.[I-] | > 64 | 32 | 8 | > 64 | > 64 | 32 | > 64 | 32 | > 64 | > 64 | > 64 | 64 | 32 | > 64 | > 64 | 64 | > 64 |
| CCCOc1ccc(/C=C/c2cc(-c3ccccc3)c[n+](C)c2-c2ccccc2)cc1.[I-] | 8 | 0.5 | 0.5 | 4 | 8 | 4 | 8 | 2 | 4 | 32 | 64 | 2 | 2 | 8 | 8 | 8 | 4 |
| C[n+]1cc(-c2ccccc2)cc(/C=C/c2ccccc2[N+](=O)[O-])c1-c1ccccc1.I | > 64 | 32 | 8 | 64 | > 64 | 16 | > 64 | 16 | > 64 | > 64 | > 64 | 32 | 16 | > 64 | > 64 | 64 | 64 |
| C[n+]1cc(-c2ccccc2)cc(/C=C/c2cccc(Br)c2)c1-c1ccccc1.[I-] | 16 | 2 | 4 | 8 | 16 | 8 | 16 | 4 | 16 | 64 | > 64 | 4 | 4 | 16 | 64 | 16 | 16 |
| CN[C@H](CC(C)C)C(=O)N[C@H]1C(=O)N[C@@H](CC(N)=O)C(=O)N[C@H]2C(=O)N[C@H]3C(=O)N[C@H](C(=O)N[C@H](C(=O)O)c4cc(O)cc(O)c4-c4cc3ccc4O)[C@H](O)c3ccc(c(Cl)c3)Oc3cc2cc(c3O[C@@H]2O[C@H](CO)[C@@H](O)[C@H](O)[C@H]2O[C@H]2C[C@](C)(N)[C@H](O)[C@H](C)O2)Oc2ccc(cc2Cl)[C@H]1O [VANCOMYCIN] | > 64 | – | – | – | – | 1 (≈ 0.69 µM) | – | 0.25 (≈ 0.173 µM) | – | > 64 | > 64 | – | 0.5 (≈ 0.345 µM) | > 64 | > 64 | 64 (≈ 44.2 µM) | 2 (≈ 1.38 µM) |
| CC(=O)Nc1ccc(/C=C/c2cc(-c3ccc4ccccc4c3)[n+](C)cc2-c2ccccc2)cc1.[I-] | – | 1 | 0.5 | – | 32 | – | 16 | – | – | > 64 | > 64 | – | 1 | – | > 64 | 32 | 16 |
